Results as given in article PMC10503991, “Synthesis of some new isoxazole compounds and their biological tyrosinase and antioxidant activities” (Turkish Journal of Chemistry, 2021).

Key:
[1] = DPPH free radical scavenging method; settings: concentration causing 50% scavenging of DPPH radical; Trolox standard
Procedure: The DPPH free radical scavenging activities of 8–14 compounds were determined using the method described before. Alcoholic solution of DPPH (1 mL, […] in methanol) was mixed with 8–14 compound solutions prepared in DMSO. […] DPPH gives a purple color in methanol. This color is decayed by antioxidant. So reduction in the absorbance indicates DPPH• scavenging activity. Trolox was used as standard radical scavenger and values were expressed as SC50 (μg compound per mL), the concentration of the samples that causes 50% scavenging of DPPH radical.

[2] = Cupric ion reducing (CUPRAC) method; settings: for CUPRAC (mg TEAC/mg): trolox equivalents per mg compound
Procedure: The capacity of 8–14 compounds to reduce cupric ions was established as it was described before. A reaction mixture was prepared by mixing a volume of CuCl2 (0.250 mL, 10 mM), neocuproine (0.250 mL, 7.5 mM in ethanol) and NH4Ac buffer (0.250 mL, 1 M, pH 7.0) with standard/compound solutions at different concentrations. SA blank was prepared by adding sample solution to premixed reaction mixture CuCl2. The absorbances of the blank and sample were read at 450 nm after a 30-min incubation at room temperature. The absorbance of the blank was subtracted from that of the sample. CUPRAC activity was expressed as equivalents of trolox (mg TEAC/mg compound).

[3] = target: mushroom tyrosinase (Agaricus bisporus, UniProt C7FF04); test: Mushroom tyrosinase inhibition assay (L-DOPA substrate, 475 nm); type: biochemical; settings: for IC50 values for the tyrosinase enzyme inhibition: abstract, unit not given; for Tyrosinase (IC50 μg/mL): mushroom tyrosinase, L-DOPA substrate, kojic acid positive control
Sequence of mushroom tyrosinase (C7FF04 1-392): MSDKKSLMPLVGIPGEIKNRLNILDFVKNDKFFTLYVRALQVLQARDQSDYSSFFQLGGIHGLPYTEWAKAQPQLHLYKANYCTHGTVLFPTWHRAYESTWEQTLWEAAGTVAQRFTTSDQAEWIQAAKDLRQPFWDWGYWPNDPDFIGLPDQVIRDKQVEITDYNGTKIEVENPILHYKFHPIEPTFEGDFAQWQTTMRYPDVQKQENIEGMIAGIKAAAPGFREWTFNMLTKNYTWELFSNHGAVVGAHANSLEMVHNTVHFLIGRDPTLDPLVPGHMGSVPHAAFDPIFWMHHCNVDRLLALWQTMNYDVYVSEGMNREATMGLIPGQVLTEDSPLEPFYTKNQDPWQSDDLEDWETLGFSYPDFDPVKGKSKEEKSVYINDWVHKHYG
Procedure: The mushroom tyrosinase inhibition assay was carried out according previously reported method. […] After 10 min of a preincubation period at room temperature, the enzymatic reaction was initiated with the addition of L-DOPA (3 mM, 20 μL) as substrate. The absorbance was read at 475 nm. The compound concentration giving 50% inhibition of tyrosinase activity was determined by interpolation of concentration-response curves. […] The extract concentration giving 50% (IC50) of the original tyrosinase activity was determined.
The position, number and nature of the substituent on benzene and pyridine rings were varied in order to identify the most appropriate group.

[4] = design: method as in PMID 33763478; settings: comparator in literature study; cited from earlier work

SMILES	DPPH, SC50 [1]	CUPRAC (mg TEAC/mg) [2]	melting point	IC50 values for the tyrosinase enzyme inhibition [3]	Tyrosinase (IC50 μg/mL) [3]	antioxidant activity in DPPH assay IC50 [4]	CUPRAC values ([2]; as printed in the results text b37)
COc1ccc(-c2cc(-c3cccc(O)c3)no2)c(OC)c1 [Compound 11, 3-(3-hydroxyphenyl)-5-(2,4-dimethoxyphenyl)isoxazole]	81.52 ± 3.66 µg/mL	0.584 ± 0.011 mg TEAC/mg	168 to 169 °C				
COc1ccc(-c2cc(-c3ccncc3)on2)cc1 [Compound 14, 3-(4-methoxyphenyl)-5-(4-pyridinyl)isoxazole]	54.41 ± 2.87 µg/mL	1.189 ± 0.021 mg TEAC/mg	141 to 143 °C	did not show any inhibition effect	No inhibition		
Cc1c(C)c2c(c(C)c1O)CCC(C)(C(=O)O)O2 (centres unmarked) [Trolox, reference compound]	5.56 ± 0.85 µg/mL					2.75 µg/mL	
COc1ccc(OC)c(-c2cc(-c3ccc(O)cc3)no2)c1 [Compound 12, 3-(4-hydroxyphenyl)-5-(2,5-dimethoxyphenyl)isoxazole]	40.21 ± 2.71 µg/mL	1.233 ± 0.015 mg TEAC/mg	176 to 178 °C				
Oc1cccc(-c2cc(-c3ccccc3)on2)c1 [Compound 10, 3-(3-hydroxyphenyl)-5-(phenyl)isoxazole]	65.65 ± 1.69 µg/mL	0.789 ± 0.009 mg TEAC/mg	230 to 231 °C	did not show any inhibition effect	No inhibition		
COc1cccc(-c2cc(-c3ccccn3)on2)c1 [Compound 13, 3-(3-methoxyphenyl)-5-(2-pyridinyl)isoxazole]	57.32 ± 2.12 µg/mL	1.245 ± 0.019 mg TEAC/mg					1.25 ± 0.019 mg TEAC/mg
COc1ccccc1-c1cc(-c2ccc(OC)c(OC)c2OC)on1 [Compound 8, 3-(2-methoxyphenyl)-5-(2,3,4-trimethoxyphenyl)isoxazole]	61.42 ± 1.41 µg/mL	1.156 ± 0.026 mg TEAC/mg	102 to 103 °C				
COc1ccc(-c2cc(-c3ccc(OC)cc3OC)on2)cc1 [Compound 9, 3-(4-methoxyphenyl)-5-(2,4-dimethoxyphenyl)isoxazole]	71.96 ± 2.36 µg/mL	0.856 ± 0.013 mg TEAC/mg	93 to 94 °C	did not show any inhibition effect	No inhibition		
